Experiments:
pitted morningglory = assay: Test D pitted morningglory; format: in vivo, Ipomoea lacunosa; settings: Preemergence, 0 to 100 scale
How it was run: (§1)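 Weed seeds planted in sandy loam; species kept apart in individual pots or compartments. Preemergence tests: treatment to soil surface within one day. Greenhouse growth, then visual injury scoring at 14–21 days (0–100).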

goosegrass = assay: Test D goosegrass; format: in vivo, Eleusine indica; settings: Preemergence, 0 to 100 scale
How it was run: as §1

tall mallow = assay: Test D tall mallow; format: in vivo, Malva sylvestris; settings: Preemergence, 0 to 100 scale
How it was run: as §1

itchgrass = assay: Test D itchgrass; format: in vivo, Rottboellia exaltata; settings: Preemergence, 0 to 100 scale
How it was run: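 Scoring used a 0–100 visual injury scale, with 0 meaning no effect and 100 complete control, assessed 14–21 days after application alongside untreated pots. Preemergence treatments went onto sandy loam surfaces of separately potted seeds within a day of sowing.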

guineagrass = assay: Test D guineagrass; format: in vivo, Panicum maximum; settings: Preemergence, 0 to 100 scale
How it was run: as §1

purple nutsedge = assay: Test D purple nutsedge; format: in vivo, Cyperus rotundus; settings: Preemergence, 0 to 100 scale
How it was run: as §1

common pursiane = assay: Test D common purslane; format: in vivo, Portulaca oleracea; settings: Preemergence, 0 to 100 scale
How it was run: as §1

dallisgrass = assay: Test D dallisgrass; format: in vivo, Paspalum dilatatum; settings: Preemergence, 0 to 100 scale
How it was run: as §1

surinam grass = assay: Test D surinam grass; format: in vivo, Brachiaria decumbens; settings: Preemergence, 0 to 100 scale
How it was run: as §1

Green foxtail [1] = assay: Test D green foxtail; format: in vivo
How it was run: as §1

Spanishneedles = assay: Test D Spanishneedles; format: in vivo, Bidens bipinnata; settings: Preemergence, 0 to 100 scale
How it was run: as §1

sandbur = assay: Test D sandbur; format: in vivo, Cenchrus echinatus; settings: Preemergence, 0 to 100 scale
How it was run: as §1

large crabgrass = assay: Test D large crabgrass; format: in vivo, Digitaria sanguinalis; settings: Preemergence, 0 to 100 scale
How it was run: as §1

Johnson grass = assay: Test D Johnson grass; format: in vivo, Sorghum halepense; settings: Preemergence, 0 to 100 scale
How it was run: as §1

Alexandergrass = assay: Test D Alexandergrass; format: in vivo, Brachiaria plantaginea; settings: Preemergence, 0 to 100 scale
How it was run: as §1

Green foxtail [2] = assay: Test D green foxtail; format: in vivo; settings: Preemergence, 0 to 100 scale
How it was run: as §1

common groundsel = assay: Test D common groundsel; format: in vivo, Senecio vulgaris; settings: Preemergence, 0 to 100 scale
How it was run: as §1

[3] = Rate 16 g/ha, 0 no injury, 100 complete control
[4] = Rate 32 g/ha, 0 no injury, 100 complete control
[5] = Rate 64 g/ha, 0 no injury, 100 complete control
[6] = Rate 125 g/ha, 0 no injury, 100 complete control
[7] = Rate 64 g/ha, Preemergence; 0 to 100 scale, 0 no injury, 100 complete control
[8] = Rate 125 g/ha, Preemergence; 0 to 100 scale, 0 no injury, 100 complete control

## C=CCn1c(=O)on(C(=O)N(c2ccc(Cl)cc2)C(C)C)c1=O [Compound 105]
Pitted morningglory; [3]
  Plant response rating, P. morninglory: 0
Pitted morningglory; [4]
  Plant response rating, P. morninglory: 0
Pitted morningglory; [5]
  Plant response rating, P. morninglory: 0
Pitted morningglory; [6]
  Plant response rating, P. morninglory: 0
Pitted morningglory; Rate 250 g/ha
  Plant response rating, P. morninglory: 0
Pitted morningglory; Rate 500 g/ha
  Plant response rating, P. morninglory: 0
goosegrass; [3]
  Plant response rating, Goosegrass: 85
goosegrass; [4]
  Plant response rating, Goosegrass: 98
goosegrass; [5]
  Plant response rating, Goosegrass: 98
goosegrass; [6]
  Plant response rating, Goosegrass: 98
goosegrass; Rate 250 g/ha
  Plant response rating, Goosegrass: 100
goosegrass; Rate 500 g/ha
  Plant response rating, Goosegrass: 100
Tall mallow; [3]
  Plant response rating, Tall Mallow: 0
Tall mallow; [4]
  Plant response rating, Tall Mallow: 0
Tall mallow; [5]
  Tall Mallow plant response rating: 0
Tall mallow; [6]
  Plant response rating, Tall Mallow: 40
  Tall Mallow plant response rating: 45
Tall mallow; Rate 250 g/ha
  Plant response rating, Tall Mallow: 75
Tall mallow; Rate 500 g/ha
  Plant response rating, Tall Mallow: 75
itchgrass; [3]
  Plant response rating, Itchgrass: 0
itchgrass; [4]
  Plant response rating, Itchgrass: 0
itchgrass; [5]
  Plant response rating, Itchgrass: 20
itchgrass; [6]
  Plant response rating, Itchgrass: 20
itchgrass; Rate 250 g/ha
  Plant response rating, Itchgrass: 85
itchgrass; Rate 500 g/ha
  Plant response rating, Itchgrass: 85
guineagrass; [3]
  Plant response rating, Guineagrass: 40
guineagrass; [4]
  Plant response rating, Guineagrass: 85
guineagrass; [5]
  Plant response rating, Guineagrass: 98
guineagrass; [6]
  Plant response rating, Guineagrass: 98
guineagrass; Rate 250 g/ha
  Plant response rating, Guineagrass: 100
guineagrass; Rate 500 g/ha
  Plant response rating, Guineagrass: 100
Purple nutsedge; [3]
  Plant response rating, Purple nutsedge: 0
Purple nutsedge; [4]
  Plant response rating, Purple nutsedge: 0
Purple nutsedge; [5]
  Purple nutsedge plant response rating: 0
Purple nutsedge; [6]
  Purple nutsedge plant response rating: 0
Purple nutsedge; Rate 250 g/ha
  Plant response rating, Purple nutsedge: 0
Purple nutsedge; Rate 500 g/ha
  Plant response rating, Purple nutsedge: 75
Common pursiane; [3]
  Plant response rating, C. purslane: 0
Common pursiane; [4]
  Plant response rating, C. purslane: 0
Common pursiane; [5]
  Plant response rating, C. purslane: 0
Common pursiane; [6]
  Plant response rating, C. purslane: 0
Common pursiane; Rate 250 g/ha
  Plant response rating, C. purslane: 0
Common pursiane; Rate 500 g/ha
  Plant response rating, C. purslane: 0
dallisgrass; [3]
  Plant response rating, Dallisgrass: 60
dallisgrass; [4]
  Plant response rating, Dallisgrass: 98
dallisgrass; [5]
  Plant response rating, Dallisgrass: 98
dallisgrass; [6]
  Plant response rating, Dallisgrass: 100
dallisgrass; Rate 250 g/ha
  Plant response rating, Dallisgrass: 100
dallisgrass; Rate 500 g/ha
  Plant response rating, Dallisgrass: 100
Surinam grass; [3]
  Plant response rating, Surinam grass: 0
Surinam grass; [4]
  Plant response rating, Surinam grass: 0
Surinam grass; [5]
  Surinam grass plant response rating: 0
Surinam grass; [6]
  Surinam grass plant response rating: 40
Surinam grass; Rate 250 g/ha
  Plant response rating, Surinam grass: 98
Surinam grass; Rate 500 g/ha
  Plant response rating, Surinam grass: 100
Green foxtail [1]; Preemergence; Rate 16 g/ha; 0 to 100 scale, 0 no injury, 100 complete control
  Plant response rating, Green foxtail: 75
Green foxtail [1]; Preemergence; Rate 32 g/ha; 0 to 100 scale, 0 no injury, 100 complete control
  Plant response rating, Green foxtail: 85
Green foxtail [1]; Rate 16 g/ha; Preemergence; 0 to 100 scale, 0 no injury, 100 complete control
  Plant response rating, Green foxtail: 75
Green foxtail [1]; Rate 32 g/ha; Preemergence; 0 to 100 scale, 0 no injury, 100 complete control
  Plant response rating, Green foxtail: 100
Green foxtail [1]; [7]
  Green foxtail plant response rating: 100
  Plant response rating, Green foxtail: 100
Green foxtail [1]; [8]
  Green foxtail plant response rating: 100
  Plant response rating, Green foxtail: 100
Green foxtail [1]; Rate 250 g/ha; Preemergence; 0 to 100 scale
  Plant response rating, Green foxtail: 100
Green foxtail [1]; Rate 500 g/ha, Preemergence; 0 to 100 scale
  Plant response rating, Green foxtail: 100
Spanishneedles; [3]
  Plant response rating, Spanishneedles: 0
Spanishneedles; [4]
  Plant response rating, Spanishneedles: 0
Spanishneedles; [5]
  Spanishneedles plant response rating: 0
Spanishneedles; [6]
  Spanishneedles plant response rating: 0
Spanishneedles; Rate 500 g/ha
  Plant response rating, Spanishneedles: 0
sandbur; [3]
  Plant response rating, Sandbur: 0
sandbur; [4]
  Plant response rating, Sandbur: 0
sandbur; [5]
  Sandbur plant response rating: 0
sandbur; [6]
  Sandbur plant response rating: 0
sandbur; Rate 250 g/ha
  Plant response rating, Sandbur: 98
sandbur; Rate 500 g/ha
  Plant response rating, Sandbur: 100
Large crabgrass; [3]
  Plant response rating Large crabgrass: 40
Large crabgrass; [4]
  Plant response rating Large crabgrass: 98
Large crabgrass; [5]
  Plant response rating Large crabgrass: 100
Large crabgrass; [6]
  Plant response rating Large crabgrass: 100
Large crabgrass; Rate 250 g/ha
  Plant response rating Large crabgrass: 100
Large crabgrass; Rate 500 g/ha
  Plant response rating Large crabgrass: 100
Johnson grass; [3]
  Plant response rating Johnsongrass: 0
Johnson grass; [4]
  Plant response rating Johnsongrass: 0
Johnson grass; [5]
  Plant response rating Johnsongrass: 0
Johnson grass; [6]
  Plant response rating Johnsongrass: 20
Johnson grass; Rate 250 g/ha
  Plant response rating Johnsongrass: 75
Johnson grass; Rate 500 g/ha
  Plant response rating Johnsongrass: 90
Alexandergrass; [3]
  Plant response rating, Alexandergrass: 0
Alexandergrass; [4]
  Plant response rating, Alexandergrass: 30
Alexandergrass; [5]
  Plant response rating, Alexandergrass: 85
Alexandergrass; [6]
  Plant response rating, Alexandergrass: 98
Alexandergrass; Rate 250 g/ha
  Plant response rating, Alexandergrass: 98
Alexandergrass; Rate 500 g/ha
  Plant response rating, Alexandergrass: 100
Green foxtail [2]; Rate 250 g/ha
  Plant response rating, Green foxtail: 100
Green foxtail [2]; Rate 500 g/ha
  Plant response rating, Green foxtail: 100
Common groundsel; [3]
  Plant response rating, Com. groundsel: 0
Common groundsel; [4]
  Plant response rating, Com. groundsel: 0
Common groundsel; [5]
  Plant response rating, Com. groundsel: 0
Common groundsel; [6]
  Plant response rating, Com. groundsel: 0
Common groundsel; Rate 250 g/ha
  Plant response rating, Com. groundsel: 0
Common groundsel; Rate 500 g/ha
  Plant response rating, Com. groundsel: 80

Reference: patent US6737383B1, “Herbicidal oxadiazolidines” (priority 1999, dated 2004)
